From patent US7897582B2, “Oligonucleotide compositions and methods for the modulation of the expression of B7 protein” (Isis Pharmaceuticals, Inc., priority 2003, dated 2011)
Strand notation (5' to 3'): a small letter for the sugar, then the base; units joined by * are phosphorothioate-linked, units joined directly phosphodiester-linked; [ ] holds rarer units or linkages, { } end groups; capitals alone tell only the bases. e = 2'-O-(2-methoxyethyl) (MOE); [5mC] = 5-methylcytosine; d = 2'-deoxy (DNA)

How the values were obtained:
hB7-2 mRNA = assay: Ribonuclease protection assay of hB7-2 mRNA in transfected COS-7 cells; format: cell-based, human
How it was run: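 COS-7 cells transfected with hB7-2 were treated with antisense oligonucleotides at varied concentrations, mismatch controls included; RNA taken 18 h after treatment. 5 μg total RNA hybridised overnight at 42° C with 32P antisense probe (B7-2 positions 1044-1391) or beta-actin probe, RNase A/T1 digested, gel-resolved and quantified by phosphorimaging.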

human B7-2 = assay: Cell surface expression of B7-2 in transfected COS-7 cells by flow cytometry; format: cell-based; conditions: for % Surface Inhibition / % Surface Expression: COS-7 cells, B7-2 cell surface; for % Surface Expression: basal = 100%; for % B7-2 EXPRESSION: human B7 cell surface expression, Table 16
Protocol: (§1) A T-175 flask was seeded at 75% confluency with COS-7 cells (ATCC accession No. CRL 1651). The plasmid pcB7-1 was introduced into cells by standard calcium phosphate transfection. Following a 4 hour transfection, the cells were trypsinized and seeded in 12-well dishes at 80% confluency. The cells were allowed to adhere to the plastic for 1 hour and were then washed with phosphate-buffered saline (PBS). OptiMEM™ (GIBCO-BRL, Gaithersburg, Md.) medium was added along with 15 μg/mL of Lipofectin™ (GIBCO-BRL, Gaithersburg, Md.) and oligonucleotide at the indicated concentrations. After four additional hours, the cells were washed with phosphate buffered saline (PBS) and incubated with fresh oligonucleotide at the same concentration in DMEM (Dulbecco et al., Virol., 1959, 8, 396; Smith et al., Virol., 1960, 12, 185) with 10% fetal calf sera (FCS).
(§2) In order to monitor the effects of oligonucleotides on cell surface expression of B7-1, treated COS-7 cells were harvested by brief trypsinization 24-48 hours after oligonucleotide treatment. The cells were washed with PBS, then resuspended in 100 μL of staining buffer (PBS, 0.2% BSA, 0.1% azide) with 5 μL conjugated anti-B7-1-antibody (i.e., anti-hCD80-FITC, Ancell, Bayport, Minn.; FITC: fluorescein isothiocyanate). The cells were stained for 30 minutes at 4° C., washed with PBS, resuspended in 300 μL containing 0.5% paraformaldehyde. Cells were harvested and the fluorescence profiles were determined using a flow cytometer.
In an initial screen, the ability of hB7-2 oligonucleotides to inhibit B7-2 expression was evaluated by measuring the cell surface expression of B7-2 in transfected COS-7 cells by flow cytometry. The methods used were similar to those given in Example 2, with the exceptions that (1) COS-7 cells were transfected with the plasmids pbcB7-2 or BBG-58, a human ICAM-1 (CD54) expression vector (R&D Systems, Minneapolis, Minn.) introduced into cells by standard calcium phosphate transfection, (2) the oligonucleotides used were those described in Table 2, and (3) a conjugated anti-B7-2 antibody (i.e., anti-hCD86-FITC or anti-CD86-PE, PharMingen, San Diego, Calif.; PE: phycoerythrin) was used during flow cytometry.
(§3) B7 antisense oligonucleotides were tested for their effect on cell surface expression of both B7-1 and B7-2. Cell surface expression was measured as described in Example 1. Experiments were done for both human B7 and mouse B7.
The oligonucleotides were screened as described in Example 2 except that the concentration of oligonucleotide was varied as shown in Table 19.

human B7-1 = assay: Cell surface expression of B7-1 in pcB7-1-transfected COS-7 cells by flow cytometry; format: cell-based; conditions: for % B7-1 EXPRESSION: human B7 cell surface expression, Table 16; for % Surface Inhibition / % Surface Expression: COS-7 cells, B7-1 cell surface; for % Surface Expression: basal = 100%
Protocol: The ability of oligonucleotides to inhibit B7-1 expression was evaluated by measuring the cell surface expression of B7-1 in transfected COS-7 cells by flow cytometry.
as §1, §2, §3
The oligonucleotides were screened as described in Example 2 except that the concentration of oligonucleotide was varied as shown in Table 18.

Human B7-1 mRNA = Human B7-1 mRNA expression in COS-7 cells, screened as in Example 4; format: cell-based
[1] = COS-7 cells, B7-2 mRNA, oligonucleotide dose 10 nM
[2] = COS-7 cells, B7-2 mRNA, oligonucleotide dose 10 nM, basal = 100%
[3] = COS-7 cells, B7-2 mRNA, oligonucleotide dose 30 nM
[4] = COS-7 cells, B7-2 mRNA, oligonucleotide dose 30 nM, basal = 100%
[5] = COS-7 cells, B7-2 mRNA, oligonucleotide dose 100 nM
[6] = COS-7 cells, B7-2 mRNA, oligonucleotide dose 100 nM, basal = 100%
[7] = COS-7 cells, B7-2 mRNA, oligonucleotide dose 300 nM
[8] = COS-7 cells, B7-2 mRNA, oligonucleotide dose 300 nM, basal = 100%

Row | Substance | % mRNA INHIBITION (hB7-2 mRNA; [1]) | % mRNA EXPRESSION (hB7-2 mRNA; [2]) | % mRNA INHIBITION (hB7-2 mRNA; [3]) | % mRNA EXPRESSION (hB7-2 mRNA; [4]) | % mRNA INHIBITION (hB7-2 mRNA; [5]) | % mRNA EXPRESSION (hB7-2 mRNA; [6]) | % mRNA INHIBITION (hB7-2 mRNA; [7]) | % mRNA EXPRESSION (hB7-2 mRNA; [8]) | % mRNA EXPRESSION (hB7-2 mRNA; human B7-2 mRNA, Table 12) | % Surface Inhibition (human B7-2; dose 10 nM) | % Surface Expression (human B7-2; dose 10 nM) | % Surface Inhibition (human B7-2; dose 30 nM) | % Surface Expression (human B7-2; dose 30 nM) | % Surface Inhibition (human B7-2; dose 100 nM) | % Surface Expression (human B7-2; dose 100 nM) | % Surface Inhibition (human B7-2; dose 300 nM) | % Surface Expression (human B7-2; dose 300 nM) | % B7-2 EXPRESSION (human B7-2) | % B7-1 EXPRESSION (human B7-1) | % mRNA EXPRESSION (Human B7-1 mRNA; human B7-1 mRNA, Table 7) | other results
1 | 22284 (eT*eG*e[5mC]*eG*eA*dG*d[5mC]*dT*d[5mC]*d[5mC]*d[5mC]*d[5mC]*dG*dT*dA*e[5mC]*e[5mC]*eT*e[5mC]*e[5mC]; antisense) [compound 22284] | 8% | 92% | 28% | 72% | 41% | 59% | 52% | 48% | 30% | 37% | 63% | 40% | 60% | 63% | 37% | 85% | 15% | 32% | 88% |  | 
2 | 22287 (eA*eG*eA*eA*eT*dG*dT*dT*dA*d[5mC]*dT*d[5mC]*dA*dG*dT*e[5mC]*e[5mC]*e[5mC]*eA*eT; antisense) [compound 22287] | 7% | 93% | 21% | 79% | 34% | 66% | 55% | 45% | 27% | 7% | 93% | 40% | 60% | 68% | 32% | 85% | 15% | 35% | 92% |  | 
3 | 22294 (eG*eG*eT*e[5mC]*e[5mC]*dA*dA*d[5mC]*dT*dG*dT*d[5mC]*d[5mC]*dG*dA*eA*eT*e[5mC]*eA*eA; antisense) [compound 22294] | 7% | 93% | 5% | 95% | 42% | 58% | 55% | 45% | 21% | 11% | 89% | 38% | 62% | 71% | 29% | 88% | 12% | 28% | 77% |  | 
4 | 22316 (eG*e[5mC]*eT*e[5mC]*eA*d[5mC]*dG*dT*dA*dG*dA*dA*dG*dA*d[5mC]*e[5mC]*e[5mC]*eT*e[5mC]*e[5mC]; antisense) [compound 22316] |  |  |  |  |  |  |  |  |  |  |  |  |  |  |  |  |  | 100% | 31% | 42% | % Surface Inhibition (human B7-1; dose 10 nM): 26%; % Surface Expression (human B7-1; dose 10 nM): 74%; % Surface Inhibition (human B7-1; dose 30 nM): 26%; % Surface Expression (human B7-1; dose 30 nM): 74%; % Surface Inhibition (human B7-1; dose 100 nM): 53%; % Surface Expression (human B7-1; dose 100 nM): 47%; % Surface Inhibition (human B7-1; dose 300 nM): 66%; % Surface Expression (human B7-1; dose 300 nM): 34%; % mRNA EXPRESSION (Human B7-1 mRNA; 10 nM, COS-7, Table 8): 99%; % mRNA INHIBITION (Human B7-1 mRNA; 10 nM, COS-7, Table 8): 1%; % mRNA EXPRESSION (Human B7-1 mRNA; 30 nM, COS-7, Table 8): 73%; % mRNA INHIBITION (Human B7-1 mRNA; 30 nM, COS-7, Table 8): 27%; % mRNA EXPRESSION (Human B7-1 mRNA; 100 nM, COS-7, Table 8): 58%; % mRNA INHIBITION (Human B7-1 mRNA; 100 nM, COS-7, Table 8): 42%; % mRNA EXPRESSION (Human B7-1 mRNA; 300 nM, COS-7, Table 8): 33%; % mRNA INHIBITION (Human B7-1 mRNA; 300 nM, COS-7, Table 8): 67%
5 | 22317 (eT*e[5mC]*e[5mC]*e[5mC]*eA*dG*dG*dT*dG*d[5mC]*dA*dA*dA*dA*d[5mC]*eA*eG*eG*e[5mC]*eA; antisense) [compound 22317] |  |  |  |  |  |  |  |  |  |  |  |  |  |  |  |  |  | 91% | 28% | 43% | 
6 | 22320 (eT*eT*eG*eA*eG*dG*dT*dA*dT*dG*dG*dA*d[5mC]*dA*d[5mC]*eT*eT*eG*eG*eA; antisense) [compound 22320] |  |  |  |  |  |  |  |  |  |  |  |  |  |  |  |  |  | 86% | 37% | 45% | 
